# The source made the active and inactive calls. The calls are words filed in the database; no cut-off is given here.
# Experiments:
# CDK9/cyclin T1 = CDK9/cyclin T1 (Homo sapiens, UniProt P50750); experiment: Inhibition of CDK9/cyclin T1 (unknown origin) pre-incubated for 20 min followed by 32P-ATP addition and measured after 2 hrs; type: protein-complex assay
# [1] = Microsomal stability in human liver microsomes assessed as residual activity at 5 uM incubated for 15 min in presence of NADPH generating system by HPLC-MS analysis; type: ADME, Microsome; settings: read-out: Stability
# [2] = Stability of the compound in stimulated gastric fluid pH 1.2 at 5 uM incubated for 30 mins by HPLC-MS analysis; type: physicochemical; settings: simulated gastric fluid, read-out: Stability
# [3] = Stability in mouse serum at 5 uM measured after 360 mins by HPLC analysis; type: ADME, cell-free; settings: read-out: Stability
# [4] = Apparent permeability of compound across apical to basolateral side in human Caco-2 cells at 10 uM incubated for 2 hrs; type: ADME, cell-based
# [5] = Drug uptake in human DU-145 cells assessed as increase in green fluorescence in cytoplasm at 1 uM incubated for 2 hrs by live-cell confocal laser scanning microscopy based analysis; type: ADME; settings: du-145, 2 h
# [6] = Drug uptake in human DU-145 cells assessed as increase in green fluorescence in nucleus at 1 uM incubated for 2 hrs by live-cell confocal laser scanning microscopy based analysis; type: ADME; settings: du-145, 2 h
# DU-145 [7] = experiment: Antiproliferative activity against human DU-145 cells incubated for 72 hrs by MTT assay; type: functional, cell-based; settings: DU-145, 72 h
# LNCaP = experiment: Antiproliferative activity against human LNCaP cells incubated for 72 hrs by MTT assay; type: functional, cell-based
# CWR22R = experiment: Antiproliferative activity against human 22Rv1 cells incubated for 72 hrs by MTT assay; type: functional, cell-based; settings: 22Rv1, 72 h
# PC-3 = experiment: Antiproliferative activity against human PC-3 cells incubated for 72 hrs by MTT assay; type: functional, cell-based; settings: PC-3, 72 h
# VCaP = experiment: Antiproliferative activity against human VCaP cells incubated for 72 hrs by MTT assay; type: functional, cell-based
# T47D = experiment: Antiproliferative activity against human T47D cells incubated for 72 hrs by MTT assay; type: functional, cell-based
# MCF7 = experiment: Antiproliferative activity against human MCF7 cells incubated for 72 hrs by MTT assay; type: functional, cell-based; settings: MCF7, 72 h
# [8] = Half life in BALB/c mouse at 10 mg/kg, ip measured upto 24 hrs by LC-MS/MS analysis; type: ADME, organism-based; settings: in vivo
# [9] = Cmax in BALB/c mouse at 10 mg/kg, ip measured upto 24 hrs by LC-MS/MS analysis; type: ADME, organism-based; settings: in vivo
# [10] = Tmax in BALB/c mouse at 10 mg/kg, ip measured upto 24 hrs by LC-MS/MS analysis; type: ADME, organism-based; settings: in vivo
# [11] = Half life in BALB/c mouse at 2 mg/kg, iv measured upto 24 hrs by LC-MS/MS analysis; type: ADME, organism-based; settings: in vivo
# [12] = Half life in BALB/c mouse at 10 mg/kg, po measured upto 24 hrs by LC-MS/MS analysis; type: ADME, organism-based; settings: in vivo
# [13] = Cmax in BALB/c mouse at 10 mg/kg, po measured upto 24 hrs by LC-MS/MS analysis; type: ADME, organism-based; settings: in vivo
# [14] = Tmax in BALB/c mouse at 10 mg/kg, po measured upto 24 hrs by LC-MS/MS analysis; type: ADME, organism-based; settings: in vivo
# DU-145 [15] = experiment: Antitumor activity against human DU-145 cells xenografted in BALB/c mouse model assessed as reduction in tumor volume at 5 mg/kg, ip measured every 12 hrs for 16 days; type: functional, organism-based; settings: time 16.0 day
# DU-145 [16] = experiment: Antitumor activity against human DU-145 cells xenografted in BALB/c mouse model assessed as reduction in tumor volume at 10 mg/kg, ip measured every 12 hrs for 16 days; type: functional, organism-based; settings: time 16.0 day
# [17] = Toxicity in BALB/c mouse xenografted with human DU-145 cells assessed as effect on body weight at 5 mg/kg, ip measured every 12 hrs for 16 days; type: organism-based; settings: in vivo, 384 h, time 16 day
# [18] = Toxicity in BALB/c mouse xenografted with human DU-145 cells assessed as effect on body weight at 10 mg/kg, ip measured every 12 hrs for 16 days; type: organism-based; settings: in vivo, 384 h, time 16 day
# [19] = Toxicity in BALB/c mouse assessed as change in alanine transferase (ALT) level in blood at 5 mg/kg, ip measured every 12 hrs for 16 days by biochemical automatic analyzer; type: organism-based; settings: in vivo, 384 h, time 16 day
# [20] = Toxicity in BALB/c mouse assessed as change in aspartate transaminase (AST) level in blood at 5 mg/kg, ip measure every 12 hrs for 16 days by biochemical automatic analyzer; type: organism-based; settings: in vivo, 384 h, time 16 day
# [21] = Toxicity in BALB/c mouse assessed as change in blood urea nitrogen level in blood at 5 mg/kg, ip measured every 12 hrs for 16 days by biochemical automatic analyzer; type: organism-based; settings: in vivo, 384 h, time 16 day
# [22] = Toxicity in BALB/c mouse assessed as change in creatinine level in blood at 5 mg/kg, ip measured every 12 hrs for 16 days by biochemical automatic analyzer; type: organism-based; settings: in vivo, 384 h, time 16 day
# [23] = Toxicity in BALB/c mouse assessed as change in alanine transferase (ALT) level in blood at 10 mg/kg, ip measured every 12 hrs for 16 days by biochemical automatic analyzer; type: organism-based; settings: in vivo, 384 h, time 16 day
# [24] = Toxicity in BALB/c mouse assessed as change in aspartate transaminase (AST) level in blood at 10 mg/kg, ip measure every 12 hrs for 16 days by biochemical automatic analyzer; type: organism-based; settings: in vivo, 384 h, time 16 day
# [25] = Toxicity in BALB/c mouse assessed as change in blood urea nitrogen level in blood at 10 mg/kg, ip measured every 12 hrs for 16 days by biochemical automatic analyzer; type: organism-based; settings: in vivo, 384 h, time 16 day
# [26] = Toxicity in BALB/c mouse assessed as change in creatinine level in blood at 10 mg/kg, ip measured every 12 hrs for 16 days by biochemical automatic analyzer; type: organism-based; settings: in vivo, 384 h, time 16 day
# DU-145 [27] = experiment: Upregulation of CDK9 expression in human DU-145 cells by Western blot analysis; type: functional, cell-based
# Chain of CDK9/cyclin T1 (O60563 whole entry): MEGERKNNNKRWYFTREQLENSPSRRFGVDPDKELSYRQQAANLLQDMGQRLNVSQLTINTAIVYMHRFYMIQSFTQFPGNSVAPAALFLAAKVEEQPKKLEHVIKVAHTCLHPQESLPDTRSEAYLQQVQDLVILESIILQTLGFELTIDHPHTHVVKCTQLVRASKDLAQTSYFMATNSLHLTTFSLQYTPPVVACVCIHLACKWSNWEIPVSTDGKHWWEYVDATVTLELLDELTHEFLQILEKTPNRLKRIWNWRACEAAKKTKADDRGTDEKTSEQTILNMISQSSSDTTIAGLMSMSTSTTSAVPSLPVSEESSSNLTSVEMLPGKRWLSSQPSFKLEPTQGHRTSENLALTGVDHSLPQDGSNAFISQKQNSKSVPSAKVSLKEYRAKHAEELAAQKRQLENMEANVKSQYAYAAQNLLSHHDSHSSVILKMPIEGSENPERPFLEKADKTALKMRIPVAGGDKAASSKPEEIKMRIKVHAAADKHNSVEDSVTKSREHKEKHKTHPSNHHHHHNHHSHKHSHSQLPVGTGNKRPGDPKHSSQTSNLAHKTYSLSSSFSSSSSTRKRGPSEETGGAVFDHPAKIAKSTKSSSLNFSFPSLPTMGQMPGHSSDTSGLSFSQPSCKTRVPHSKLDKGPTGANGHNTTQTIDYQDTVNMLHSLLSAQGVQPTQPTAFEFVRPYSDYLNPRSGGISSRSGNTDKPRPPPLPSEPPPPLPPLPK
# Chain of CDK9/cyclin T1 (P50750 whole entry): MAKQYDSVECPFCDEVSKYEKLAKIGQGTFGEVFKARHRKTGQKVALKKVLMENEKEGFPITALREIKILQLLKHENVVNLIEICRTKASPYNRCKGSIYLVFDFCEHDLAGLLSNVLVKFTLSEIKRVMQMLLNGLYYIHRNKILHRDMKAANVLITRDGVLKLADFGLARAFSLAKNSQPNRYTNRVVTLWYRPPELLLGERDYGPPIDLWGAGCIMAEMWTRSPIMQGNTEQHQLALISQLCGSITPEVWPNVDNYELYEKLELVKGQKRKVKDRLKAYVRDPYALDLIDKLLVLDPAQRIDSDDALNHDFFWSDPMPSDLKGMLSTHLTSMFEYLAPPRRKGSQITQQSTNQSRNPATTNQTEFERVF
smiles,measurement,setting,value
CC(=O)N[C@H](CC(N)=O)C(=O)N[C@@H](C)C(=O)N[C@@H](CC(C)C)C(=O)N[C@@H](CCC(N)=O)C(=O)N[C@H](C(=O)N[C@H](CC(C)C)C(=O)NCC(=O)N[C@@H](Cc1ccccc1)C(=O)N[C@H](CCC(N)=O)C(=O)N[C@@H](CC(C)C)C(=O)N[C@H](C(N)=O)[C@@H](C)O)[C@@H](C)O,IC50,CDK9/cyclin T1,4.16 nM
same,"remaining at 0.25 h, 5 µM",[1],98.2%
same,"remaining at 0.5 h, 5 µM",[2],96.7%
same,"remaining at 6 h, 5 µM",[3],87%
same,"Papp A→B at 2 h, 10 µM",[4],29.8 ×10⁻⁶ cm/s
same,Drug uptake,[5],Active
same,Drug uptake,[6],Active
same,IC50,DU-145 [7],350 nM
same,IC50,LNCaP,410 nM
same,IC50,CWR22R,950 nM
same,IC50,PC-3,720 nM
same,IC50,VCaP,810 nM
same,IC50,T47D,460 nM
same,IC50,MCF7,590 nM
same,half-life,[8],4.62 h
same,Cmax,[9],2690 ng/mL
same,Tmax,[10],0.49 h
same,half-life,[11],5.13 h
same,half-life,[12],4.87 h
same,Cmax,[13],3200 ng/mL
same,Tmax,[14],0.41 h
same,Activity,DU-145 [15],Active
same,Activity,DU-145 [16],Active; Compound Showed More Effect
same,Activity,[17],Toxic
same,Activity,[18],Toxic
same,Activity,[19],Toxic
same,Activity,[20],Toxic
same,Activity,[21],Toxic
same,Activity,[22],Toxic
same,Activity,[23],Toxic
same,Activity,[24],Toxic
same,Activity,[25],Toxic
same,Activity,[26],Toxic
same,Activity,DU-145 [27],Active
CC(=O)N[C@H](CC(C)C)C(=O)N[C@@H](C)C(=O)N[C@@H](CC(C)C)C(=O)N[C@@H](CCC(N)=O)C(=O)N[C@H](C(=O)N[C@H](CC(C)C)C(=O)NCC(=O)N[C@@H](Cc1ccccc1)C(=O)N[C@H](CCC(N)=O)C(=O)N[C@@H](CC(C)C)C(=O)N[C@H](C(N)=O)C(C)C)[C@@H](C)O,IC50,CDK9/cyclin T1,17.5 nM
same,IC50,DU-145 [7],1670 nM
CC(=O)N[C@@H](CC(N)=O)C(=O)N[C@@H](C)C(=O)N[C@@H](CC(C)C)C(=O)N[C@@H](CCC(N)=O)C(=O)N[C@H](C(=O)N[C@H](CC(C)C)C(=O)NCC(=O)N[C@@H](Cc1ccccc1)C(=O)N[C@H](CCC(N)=O)C(=O)N[C@@H](CC(C)C)C(=O)N[C@H](C(N)=O)[C@@H](C)O)[C@@H](C)O,IC50,CDK9/cyclin T1,87.4 nM
same,IC50,DU-145 [7],9030 nM
Nc1n[nH]c(N)c1/N=N/c1ccc(O)cc1,IC50,DU-145 [7],33100 nM
CC(=O)N[C@H](CC(N)=O)C(=O)N[C@H](CCC(N)=O)C(=O)N[C@@H](CC(C)C)C(=O)NCC(=O)N[C@@H](Cc1ccccc1)C(=O)N[C@H](CC(C)C)C(=O)N[C@@H](CC(C)C)C(=O)N[C@@H](C)C(=O)N[C@H](C(=O)N[C@@H](CCC(N)=O)C(=O)N[C@H](C(N)=O)[C@@H](C)O)[C@@H](C)O,IC50,CDK9/cyclin T1,> 50 nM
same,IC50,DU-145 [7],> 50000 nM
CC(=O)N[C@H](C)C(=O)N[C@@H](C)C(=O)N[C@@H](CC(C)C)C(=O)N[C@@H](C)C(=O)N[C@H](C(=O)N[C@H](CC(C)C)C(=O)NCC(=O)N[C@@H](Cc1ccccc1)C(=O)N[C@H](C)C(=O)N[C@@H](CC(C)C)C(=O)N[C@@H](C)C(N)=O)[C@@H](C)O,IC50,CDK9/cyclin T1,> 50 nM
same,IC50,DU-145 [7],> 50000 nM
CC(=O)N[C@H](CC(N)=O)C(=O)N[C@@H](C)C(=O)N[C@@H](CC(C)C)C(=O)N[C@@H](CCC(N)=O)C(=O)N[C@H](C(=O)N[C@H](CC(C)C)C(=O)NCC(=O)N[C@@H](Cc1ccccc1)C(=O)N[C@H](C)C(=O)N[C@@H](CC(C)C)C(=O)N[C@H](C(N)=O)[C@@H](C)O)[C@@H](C)O,IC50,CDK9/cyclin T1,36.8 nM
same,IC50,DU-145 [7],4050 nM
CC(=O)N[C@H](CC(C)C)C(=O)N[C@@H](C)C(=O)N[C@@H](CC(C)C)C(=O)N[C@@H](CCC(N)=O)C(=O)N[C@H](C(=O)N[C@H](CC(C)C)C(=O)NCC(=O)N[C@@H](Cc1ccccc1)C(=O)N[C@H](CCC(N)=O)C(=O)N[C@@H](CC(C)C)C(=O)N[C@H](C(N)=O)[C@@H](C)O)[C@@H](C)O,IC50,CDK9/cyclin T1,10.5 nM
same,"remaining at 0.25 h, 5 µM",[1],95.6%
same,"remaining at 0.5 h, 5 µM",[2],94.2%
same,"Papp A→B at 2 h, 10 µM",[4],26.8 ×10⁻⁶ cm/s
same,IC50,DU-145 [7],820 nM
same,Activity,DU-145 [27],Active
CC(=O)N[C@H](CC(N)=O)C(=O)N[C@@H](C)C(=O)N[C@H](C(=O)N[C@@H](CCC(N)=O)C(=O)N[C@H](C(=O)N[C@H](CC(C)C)C(=O)NCC(=O)N[C@@H](Cc1ccccc1)C(=O)N[C@H](CCC(N)=O)C(=O)N[C@@H](CC(C)C)C(=O)N[C@H](C(N)=O)[C@@H](C)O)[C@@H](C)O)C(C)C,IC50,CDK9/cyclin T1,23.9 nM
same,IC50,DU-145 [7],2520 nM
